Results: ChEMBL document CHEMBL4602601, “Pharmaceutical and medicinal significance of sulfur (SVI)-Containing motifs for drug discovery: A critical review” (Eur J Med Chem, 2019)

Columns and labels:
[1] = Inhibition of HIV protease; design: species or system Human immunodeficiency virus
[2] = Half life in rat; type: ADME; conditions: in vivo
Chikungunya virus = experiment: Antiviral activity against CHIKV; type: functional, organism-based
THP-1 = experiment: Cytotoxicity against human THP1 cells assessed as reduction in cell viability; type: functional, cell-based
[3] = Antagonist activity at cannabinoid receptor (unknown origin); design: species or system Homo sapiens
Carbonic anhydrase 4 = Carbonic anhydrase 4 (Homo sapiens, UniProt P22748); experiment: Inhibition of human carbonic anhydrase 4
Carbonic anhydrase 2 = Carbonic anhydrase 2 (Homo sapiens, UniProt P00918); experiment: Inhibition of human carbonic anhydrase 2
[4] = target: 5-hydroxytryptamine receptor 6 (Homo sapiens, UniProt P50406); experiment: Antagonist activity at 5-HT6 receptor (unknown origin)
Carbonic anhydrase 1 = Carbonic anhydrase 1 (Homo sapiens, UniProt P00915); experiment: Inhibition of human carbonic anhydrase 1
[5] = target: T1, Prostaglandin G/H synthase 2 (Rattus norvegicus, UniProt P35355); experiment: Inhibition of COX2 isolated from rat seminal vesicles assessed as reduction of PGG2 to PGH2 using arachidonic acid substrate preincubated for 15 mins followed by substrate addition
T1 sequence (P35355 whole entry): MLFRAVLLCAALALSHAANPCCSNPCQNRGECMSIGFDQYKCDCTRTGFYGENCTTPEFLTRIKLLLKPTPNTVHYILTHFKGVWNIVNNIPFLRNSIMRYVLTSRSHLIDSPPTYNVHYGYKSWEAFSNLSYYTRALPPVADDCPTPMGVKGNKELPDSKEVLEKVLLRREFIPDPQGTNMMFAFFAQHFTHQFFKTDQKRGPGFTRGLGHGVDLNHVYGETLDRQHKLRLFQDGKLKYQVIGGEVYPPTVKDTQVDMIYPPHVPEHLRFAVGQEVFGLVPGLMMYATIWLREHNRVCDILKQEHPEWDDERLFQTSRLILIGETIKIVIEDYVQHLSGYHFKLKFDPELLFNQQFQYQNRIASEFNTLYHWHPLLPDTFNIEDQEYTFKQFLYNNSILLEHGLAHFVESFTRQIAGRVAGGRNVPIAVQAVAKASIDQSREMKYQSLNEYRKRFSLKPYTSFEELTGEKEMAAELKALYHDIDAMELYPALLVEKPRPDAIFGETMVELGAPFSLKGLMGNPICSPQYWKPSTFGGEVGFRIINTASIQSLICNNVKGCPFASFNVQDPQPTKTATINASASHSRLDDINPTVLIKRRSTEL

[6] = Inhibition of rat 5'-nucleotidase
Cannabinoid receptor 1 [7] = target: T2, Cannabinoid receptor 1 (Homo sapiens, UniProt P21554); experiment: Antagonist activity at human cannabinoid CB1 receptor
[8] = Inhibition of HIV integrase; design: species or system Human immunodeficiency virus
[9] = tested on: Human immunodeficiency virus 1; experiment: Antiviral activity against HIV1; type: functional, organism-based
[10] = Inhibition of HIV RT; design: species or system Human immunodeficiency virus
Cannabinoid receptor 1 [11] = target: T2, Cannabinoid receptor 1; experiment: Antagonist activity at cannabinoid CB1 receptor (unknown origin)
Cannabinoid receptor 2 = Cannabinoid receptor 2 (Homo sapiens, UniProt P34972); experiment: Antagonist activity at human cannabinoid CB2 receptor
Leishmania amazonensis = experiment: Antileishmanial activity against Leishmania amazonensis; type: functional, organism-based
Leishmania infantum = experiment: Antileishmanial activity against Leishmania infantum; type: functional, organism-based
Trypanosoma cruzi = experiment: Antitrypanosomal activity against Trypanosoma cruzi; type: functional, organism-based

T2 sequence (P21554 whole entry): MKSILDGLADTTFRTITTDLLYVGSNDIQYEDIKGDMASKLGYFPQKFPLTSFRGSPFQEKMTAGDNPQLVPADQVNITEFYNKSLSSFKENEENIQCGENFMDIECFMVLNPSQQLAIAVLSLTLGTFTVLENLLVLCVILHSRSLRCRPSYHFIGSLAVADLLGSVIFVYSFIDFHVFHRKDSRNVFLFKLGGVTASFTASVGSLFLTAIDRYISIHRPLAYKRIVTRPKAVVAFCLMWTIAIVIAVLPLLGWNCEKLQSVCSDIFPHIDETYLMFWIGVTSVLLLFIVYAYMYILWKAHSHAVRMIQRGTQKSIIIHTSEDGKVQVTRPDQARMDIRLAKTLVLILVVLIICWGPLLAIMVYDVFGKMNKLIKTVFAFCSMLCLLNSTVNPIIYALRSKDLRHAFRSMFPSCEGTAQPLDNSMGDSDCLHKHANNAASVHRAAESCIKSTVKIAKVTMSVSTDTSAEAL
Sequence of 5-hydroxytryptamine receptor 6 (P50406 whole entry): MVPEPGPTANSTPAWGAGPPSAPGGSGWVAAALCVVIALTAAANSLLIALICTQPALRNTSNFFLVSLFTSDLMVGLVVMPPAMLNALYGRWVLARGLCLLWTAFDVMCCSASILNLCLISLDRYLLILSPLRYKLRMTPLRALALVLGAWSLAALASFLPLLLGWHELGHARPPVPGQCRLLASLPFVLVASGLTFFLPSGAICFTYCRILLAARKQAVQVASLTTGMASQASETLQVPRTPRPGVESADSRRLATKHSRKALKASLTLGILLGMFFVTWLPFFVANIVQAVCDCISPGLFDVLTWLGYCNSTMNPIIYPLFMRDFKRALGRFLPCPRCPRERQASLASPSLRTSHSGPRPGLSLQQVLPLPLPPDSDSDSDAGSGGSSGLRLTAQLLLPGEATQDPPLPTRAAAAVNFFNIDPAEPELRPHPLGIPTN
Sequence of Carbonic anhydrase 1 (P00915 whole entry): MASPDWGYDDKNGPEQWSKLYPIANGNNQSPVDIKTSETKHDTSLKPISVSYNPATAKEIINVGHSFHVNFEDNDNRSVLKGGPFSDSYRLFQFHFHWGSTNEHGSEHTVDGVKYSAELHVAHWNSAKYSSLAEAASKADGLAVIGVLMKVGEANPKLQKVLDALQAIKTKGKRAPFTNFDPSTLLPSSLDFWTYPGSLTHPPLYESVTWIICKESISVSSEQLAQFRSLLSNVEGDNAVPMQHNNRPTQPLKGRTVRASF
Sequence of Cannabinoid receptor 2 (P34972 whole entry): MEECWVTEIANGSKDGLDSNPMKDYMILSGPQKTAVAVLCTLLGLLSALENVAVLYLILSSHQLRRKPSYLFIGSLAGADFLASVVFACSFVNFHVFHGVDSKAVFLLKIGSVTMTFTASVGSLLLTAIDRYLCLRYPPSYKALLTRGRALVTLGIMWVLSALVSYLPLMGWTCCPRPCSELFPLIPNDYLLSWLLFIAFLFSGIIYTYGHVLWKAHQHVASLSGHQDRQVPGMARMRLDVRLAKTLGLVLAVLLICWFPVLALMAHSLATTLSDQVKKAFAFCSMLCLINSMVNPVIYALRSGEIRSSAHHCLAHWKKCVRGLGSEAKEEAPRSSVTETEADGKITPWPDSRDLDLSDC
Sequence of Carbonic anhydrase 4 (P22748 whole entry): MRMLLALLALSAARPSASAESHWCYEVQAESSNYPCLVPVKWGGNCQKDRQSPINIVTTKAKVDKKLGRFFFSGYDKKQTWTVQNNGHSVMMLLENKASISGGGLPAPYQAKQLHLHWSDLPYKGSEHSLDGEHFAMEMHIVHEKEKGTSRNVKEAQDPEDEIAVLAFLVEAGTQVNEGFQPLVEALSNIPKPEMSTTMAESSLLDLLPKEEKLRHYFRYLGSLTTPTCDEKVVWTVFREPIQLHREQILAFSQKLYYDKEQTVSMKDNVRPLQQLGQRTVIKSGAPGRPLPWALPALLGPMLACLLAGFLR

N#Cc1ccc(S(=O)(=O)Nc2cccc(C(c3c(O)c4c(oc3=O)CCCCCC4)C3CC3)c2)cc1 (configuration not stated)
Ki [1]: 0.0008 µM | half-life [2]: 6 h | IC50 (Chikungunya virus): 0.0015 µM

O=S(=O)(Nc1ccc([Se][Se]c2ccc(NS(=O)(=O)c3ccc(F)cc3)cc2)cc1)c1ccc(F)cc1
IC50 (THP-1): 2.8 µM

Cc1ccc(S(=O)(=O)Oc2ccc3c(CSc4nc5ccccc5c(=O)[nH]4)cc(=O)oc3c2)cc1
EC50 (Chikungunya virus): 10.2 µM

O=S(=O)(NCc1ccc(-c2ccc(F)cc2F)cn1)c1cc2cc(Cl)ccc2[nH]1
IC50 [3]: 0.003 µM

COc1ccc(C2=NN(C(C)=O)C(c3ccc(OS(N)(=O)=O)cc3)C2)cc1 (configuration not stated)
IC50 (Carbonic anhydrase 4): 0.0205 µM | IC50 (Carbonic anhydrase 2): 0.0004 µM

O=S(=O)(Nc1ccc2sc(N3CCNCC3)nc2c1)c1cccc2ccccc12
Ki [4]: 0.5 µM

NS(=O)(=O)c1ccc(N2C(=O)CC/C2=C\C(=O)c2cccc(F)c2)cc1
IC50 (Carbonic anhydrase 2): 0.00046 µM

O=S(=O)(Cl)c1c(Cl)nc2n1CCS2
Ki [4]: 0.0084 µM

CC(=O)/C(=N\Nc1cccc(-n2nc(C(=O)Nc3nnc(S(N)(=O)=O)s3)c(C(=O)Nc3nnc(S(N)(=O)=O)s3)c2-c2ccccc2)c1)C(=O)c1ccccc1
Ki (Carbonic anhydrase 1): 0.119 µM

C/C(=N\NC(=O)CNC(=O)c1cccc(S(=O)(=O)Nc2ccccc2Cl)c1)c1ccc(F)cc1
IC50 [5]: 8.4 µM

COc1cc(/C=C2\C=C(c3ccc(Cl)cc3)N(c3ccc(S(N)(=O)=O)cc3)C2=O)cc(OC)c1OC
IC50 [5]: 0.42 µM

O=S(=O)(Nc1ccc2[nH]ccc2c1)c1c(Cl)nc2n1CCS2
Ki [4]: 0.0169 µM

NS(=O)(=O)c1ccc(N2C(=O)/C(=C/c3ccc(C(F)(F)F)cc3)C=C2c2ccc(Cl)cc2)cc1
IC50 [5]: 0.62 µM

CCCC(=O)/C(=N/Nc1cccc(-n2nc(C(=O)Nc3nnc(S(N)(=O)=O)s3)c(C(=O)Nc3nnc(S(N)(=O)=O)s3)c2-c2ccccc2)c1)C(=O)OCC
Ki (Carbonic anhydrase 2): 0.884 µM

COc1ccc(/C=C/C(=O)/C(=N/Nc2ccc(S(N)(=O)=O)cc2)N2CCOCC2)cc1
IC50 [6]: 0.33 µM

Cc1cc(S(=O)(=O)N2CCc3c(nc(C(C)(C)C)n3CC3CC3)C2)no1
EC50 (Cannabinoid receptor 1 [7]): 0.0051 µM

CN(C)c1cccnc1N1CCN(C(=O)c2cc3cc(NS(C)(=O)=O)ccc3[nH]2)CC1
IC50 [8]: 0.036 µM | IC50 [9]: 0.021 µM | IC50 [10]: > 100 µM

O=C(CNC(=O)c1cccc(S(=O)(=O)Nc2ccccc2Cl)c1)N/N=C/c1ccc(C(F)(F)F)cc1
IC50 [5]: 8.9 µM

CCn1cnc2c(Oc3ccc(/C=C/C(=O)c4ccc(NS(=O)(=O)c5ccccc5C)cc4)cc3)ncnc21
EC50 (Chikungunya virus): 51.6 µg/mL

CC(C)c1ccc(S(=O)(=O)Nc2ccc3nc(N4CCN(C)CC4)sc3c2)cc1
IC50 [4]: 14 µM

O=C(NN1CCCCC1)c1cn(-c2ccc(Cl)cc2Cl)c(-c2ccc(C#Cc3ccc(C(F)(F)F)cc3)s2)c1CNS(=O)(=O)N1CCCC1
EC50 (Cannabinoid receptor 1 [11]): 0.003 µM | Ki (Cannabinoid receptor 1 [7]): 0.0003 µM | Ki (Cannabinoid receptor 2): 0.021 µM

CN1CCN(c2nc3cc(NS(=O)(=O)c4cccc5ccccc45)ccc3s2)CC1
IC50 [4]: 3.9 µM

NS(=O)(=O)c1ccc(N2C(=O)CC/C2=C\C(=O)c2ccc([N+](=O)[O-])cc2Cl)cc1
IC50 (Carbonic anhydrase 2): 0.00046 µM

O=c1ccnc(SCc2cc(=O)oc3cc(OS(=O)(=O)c4ccccc4[N+](=O)[O-])ccc23)[nH]1
EC50 (Chikungunya virus): 13 µM

CCOc1ccc(-c2ccc(CNS(=O)(=O)c3cc4cc(Cl)ccc4[nH]3)cc2)cn1
IC50 [3]: 0.004 µM

Cc1cc(S(=O)(=O)N2CCc3c(nc(CC(C)(C)C)n3CC3CC3)C2)no1
EC50 (Cannabinoid receptor 1 [7]): 0.007 µM

O=S(=O)(Nc1cccc2cnccc12)c1ccc2ccccc2c1
IC50 (Leishmania amazonensis): 42.9 µM | IC50 (Leishmania infantum): 23 µM | IC50 (Trypanosoma cruzi): 224 µM

CC(=O)N1CCc2ccc(NS(=O)(=O)c3c(Cl)nc4n3CCS4)cc21
Ki [4]: 0.0054 µM
